Source: ChEMBL document CHEMBL5226289, “Discovery of natural anti-inflammatory alkaloids: Potential leads for the drug discovery for the treatment of inflammation” (Eur J Med Chem, 2021)
Residues, ends and D or L forms follow the SMILES beside them. *: point of attachment. Cbz = O=C(OCc1ccccc1)*

Columns and labels:
[1] = Inhibition of TNF-alpha production in LPS-stimulated human PBMC cells; assay type: functional, cell-based
[2] = tested on: RAW264.7; test: Antiinflammatory activity in mouse RAW264.7 cells assessed as inhibition of LPS-stimulated iNOS activity preincubated with compound for 24 hrs followed by LPS stimulation for 2 hrs and measured 2 hrs after NADPH addition by fluorescence based assay; assay type: functional, cell-based
[3] = tested on: HEp-2; test: Cytotoxicity against human HEp-2 cells assessed as inhibition of cell growth incubated for 48 hrs by MTT assay; assay type: functional, cell-based; details: HEp-2, 48 h, pooled result: one value given for 7 cell lines, strains, targets or settings
[4] = tested on: RAW264.7; test: Inhibition of NO production in LPS-stimulated mouse RAW264.7 cells incubated for 24 hrs by Griess reagent-based assay; assay type: functional, cell-based; details: RAW264.7, 24 h
[5] = tested on: Mus musculus; test: Antiinflammatory activity in carrageenan-induced peritoneal Swiss albino mouse model assessed as decrease in number of leukocyte cells at 100 umol/kg, po pre-treated for 30 mins followed by carrageenan induction and measured after 4 hrs relative to control; assay type: functional; parameters: scale not given: the % may be the effect or the level left; details: dose 100 µmol/kg, time 4.5 hrs
[6] = tested on: RAW264.7; test: Antiinflammatory activity against LPS-stimulated mouse RAW264.7 cells assessed as inhibition of IL-6 production incubated for 24 hrs by ELISA analysis relative to control; assay type: functional
[7] = tested on: RAW264.7; test: Antiinflammatory activity against LPS-stimulated mouse RAW264.7 cells assessed as inhibition of TNF-alpha production incubated for 24 hrs by ELISA analysis relative to control; assay type: functional
[8] = biological target: Prostaglandin G/H synthase 1 (Homo sapiens, UniProt P23219); test: Inhibition of COX-1 (unknown origin) using arachidonic acid as substrate at 100 uM preincubated for 5 mins followed by substrate addition and measured after 15 mins relative to control; details: time 20.0 min
Sequence of Prostaglandin G/H synthase 1 (P23219 whole entry): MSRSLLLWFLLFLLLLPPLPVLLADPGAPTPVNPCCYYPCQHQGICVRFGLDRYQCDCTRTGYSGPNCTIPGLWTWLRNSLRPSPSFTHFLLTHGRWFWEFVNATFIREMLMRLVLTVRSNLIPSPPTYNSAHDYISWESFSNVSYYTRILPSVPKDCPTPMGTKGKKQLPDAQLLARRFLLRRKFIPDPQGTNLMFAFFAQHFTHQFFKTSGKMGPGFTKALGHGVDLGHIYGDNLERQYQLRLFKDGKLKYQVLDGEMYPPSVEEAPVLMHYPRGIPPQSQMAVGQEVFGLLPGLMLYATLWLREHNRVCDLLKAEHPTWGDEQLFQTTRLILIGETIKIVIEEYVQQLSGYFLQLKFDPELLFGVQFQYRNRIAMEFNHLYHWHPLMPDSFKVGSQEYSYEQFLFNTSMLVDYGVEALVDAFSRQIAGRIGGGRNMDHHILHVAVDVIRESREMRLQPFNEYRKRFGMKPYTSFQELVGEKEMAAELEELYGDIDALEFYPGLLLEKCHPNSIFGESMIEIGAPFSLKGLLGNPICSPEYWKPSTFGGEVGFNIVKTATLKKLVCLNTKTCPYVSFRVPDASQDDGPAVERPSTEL

[9] = tested on: RAW264.7; test: Inhibition of NO production in LPS-induced mouse RAW264.7 cells; assay type: functional, cell-based
[10] = Inhibition of NO production in LPS-stimulated mouse BV-2 cells preincubated with compound for 1 hrs followed by LPS stimulation and measured after 24 hrs by Griess reagent-based assay; assay type: functional, cell-based
[11] = Inhibition of NO production in LPS-stimulated mouse BV-2 cells incubated for 24 hrs by Griess reagent-based assay; assay type: functional, cell-based; details: BV-2, 24 h
[12] = tested on: RAW264.7; test: Inhibition of NO production in LPS-stimulated mouse RAW264.7 cells preincubated with compound for 1 hrs followed by LPS stimulation and measured after 24 hrs by Griess reagent-based assay; assay type: functional, cell-based
[13] = Inhibition of IL6 production in LPS-stimulated human PBMC cells; assay type: functional, cell-based
[14] = Antiinflammatory activity in rat polymorphonuclear leucocyte cells assessed as inhibition of PAF-induced beta-glucuronidase release at 10 uM relative to control; assay type: functional
[15] = tested on: RAW264.7; test: Antiinflammatory activity against mouse RAW264.7 cells assessed as inhibition of cell growth; assay type: functional, cell-based
[16] = tested on: RAW264.7; test: Antiinflammatory activity against LPS-stimulated mouse RAW264.7 cells assessed as inhibition of IL-1beta production at 20 uM preincubated for 27 hrs followed by LPS stimulation and measured after 12 hrs by ELISA analysis relative to control; assay type: functional; details: time 39 hrs
[17] = tested on: RAW264.7; test: Antiinflammatory activity against LPS-stimulated mouse RAW264.7 cells assessed as inhibition of TNFalpha production at 20 uM preincubated for 27 hrs followed by LPS stimulation and measured after 12 hrs by ELISA analysis relative to control; assay type: functional; details: time 39 hrs

COc1cc(Cc2ccc3c(c2)[nH]c2c4c(c(C)cc23)OC(C)(CCC=C(C)C)C=C4)cc2c1[nH]c1ccccc12 (stereo not given)
IC50 [1]: 10 µM

CC(C)C[C@@H](C=O)NC(=O)[C@H](CC(C)C)NC(=O)[C@H](CC(C)C)NC(=O)OCc1ccccc1 [MG-132] (Cbz-Leu-Leu-Leu-aldehyde)
IC50 [2]: 0.2 µM

COc1ccc2c(cc3c4c(cc5c(c42)OCO5)CCN3C)c1O
IC50 [3]: 28.9 µM

CC[C@H](C)CN1C(=O)c2cc3c(cc2[C@@]24C=C[C@@H](OC)C[C@@H]2N(C)C(=O)[C@@H]14)OCO3
IC50 [4]: 1.39 µM

COc1ccc2c(c1)c(CC(=O)O)c(C)n2C(=O)c1ccc(Cl)cc1 [INDOMETHACIN]
Activity [5]: 72.1%

O=C1C=CC[C@@H]2[C@H]3CCCN4CCC[C@@H](CN12)[C@@H]34 [SOPHOCARPINE]
inhibition (INH) [6]: >40% | inhibition (INH) [7]: >40%

COC1=CC(=O)c2cc3c4c(cc(O)c(OC)c4c2C1=O)CCN3C
IC50 [3]: 8.7 µM

COc1cc2c(cc1OC)[C@H]1CCN(C2)C(=O)[C@@H](O)[C@H](O[C@@H]2O[C@H](C)[C@@H](OC)[C@@H]3OCOCO[C@@H]23)CC1=O
inhibition [8]: > 64%

C[C@@H]1C[C@@H]2CCCN2[C@H](CC(=O)C[C@H]2N3CCC[C@H]3C[C@@H](C)[C@]2(O)c2ccccc2)[C@H]1c1ccccc1
IC50 [9]: 16.1 µM

N=C(N)NN [PIMAGEDINE]
IC50 [4]: 1.8 µM

COc1cc2c(cc1OC)[C@H]1CCN(C2)C(=O)[C@@H](O)[C@H](O[C@@H]2O[C@H](C)[C@@H](OC)[C@H](OC)[C@H]2OC)CC1=O
inhibition [8]: > 64%

CO[C@H]1[C@@H]2C[C@]34CCCCCCCCCCn5ccc2c5C(=O)[C@@H]3[C@H]2C(O)C/C=C\C/C=C\CCC[N@@+]21C4 (stereo not given in full)
IC50 [10]: 1.1 µM

C/C=C1/CN2CC[C@@H]1C(=O)c1[nH]c3ccc(OC)cc3c1C2
IC50 [4]: 2.4 µM

C=Cc1cncc2c1CC1c3[nH]c4ccccc4c3CCN1C2=O (stereo not given)
IC50 [4]: 1.6 µM

C[C@@H]1CC2CC(=O)C3CCCN4CC[C@@H](O)[C@]2(O)C34C1 (stereo not given in full)
IC50 [11]: 4.2 µM

C[C@@H](O)C1=CC2=NC=CC3c4ccccc4N(C1=O)C23 (stereo not given in full)
IC50 [4]: 15.1 µM

O=C1c2ccccc2-c2c3c(cc4ccnc1c24)OCO3 [LIRIODENINE]
IC50 [4]: 1.39 µM

O=Cc1cc2c(cc1O)[nH]c1cc(O)ccc12 [CLAUSINE O]
IC50 [10]: 6.4 µM

O=C(O)c1cc(C(=O)c2ccco2)n2c1CCC2
IC50 [9]: 22.8 µM

O=C1CC[C@H]2c3[nH]c4ccc(O)cc4c3CCN12
IC50 [12]: 25.2 µM

COc1cc(C)cc2c1[nH]c1ccccc12 [MURRAYAFOLINE A]
IC50 [1]: 7 µM | IC50 [13]: 8.4 µM

COc1c2c(cc3c1OCO3)[C@H]1CCN(C2)C(=O)[C@@H](O)[C@H](O[C@@H]2O[C@H](CO)[C@@H](OC)[C@H](OC)[C@H]2OC)CC1=O
inhibition [8]: > 64%

C[C@@H]1C[C@H]2[C@@H]3CCC4=CC(=O)C=C[C@]4(C)[C@@]3(F)[C@@H](O)C[C@]2(C)[C@@]1(O)C(=O)CO [DEXAMETHASONE]
IC50 [9]: 47 µM

O=C1C(O)=CC[C@@H]2[C@H]3CCCN4CCC[C@@H](CN12)[C@@H]34
inhibition (INH) [6]: >40% | inhibition (INH) [7]: >40%

CC(=O)O[C@@H]1CC2C3CCCN4CCCC1C34C[C@H](C)[C@H]2O (stereo not given in full)
IC50 [11]: 4.2 µM

COc1ccc2c(c1)[nH]c1c3c(c(C)cc12)OC(C)(C)C=C3
IC50 [1]: 9.4 µM | IC50 [13]: 8.4 µM

COC1=CC(=O)c2cc3c4c(cc(OC)c(OC)c4c2C1=O)CCN3C
IC50 [3]: 10.5 µM

O=c1c(CO)ccc2n1CCc1c-2[nH]c2ccccc12
IC50 [4]: 12 µM

C[C@@H]1CC2CC(=O)C3CCCN4CCC[C@@]2(O)C34C1 (stereo not given in full)
IC50 [11]: 4.2 µM

O=C(OC[C@@H]1CCN2CCC[C@H]12)c1ccccc1
IC50 [4]: 25.5 µM

C/C=C(/C)C(=O)O[C@@H]1CC[N+]2([O-])CC=C(COC(=O)[C@](O)(C(C)C)[C@H](C)OC)[C@H]12 (stereo not given in full)
IC50 [4]: 105 µM

O=C1C=CC2=NC=CC3c4cc(O)ccc4N1C23 (stereo not given)
IC50 [4]: 12 µM

CO[C@H]1[C@@H]2C[C@]34CCCCCCCCCCn5ccc2c5C(=O)[C@@H]3[C@H]2[C@H](O)CCCCCCCC[N@@+]21C4
IC50 [10]: 2.1 µM

CC[C@@H](C)[C@@H](C)C(=O)OC/C=C(\C)C(=O)OC[C@@H]1CCN2CCC[C@H]12
IC50 [4]: 38.6 µM

C[C@@H]1C(=O)O[C@H]2C(O)C34[C@H]5C[C@@H](C(C)(C)C)[C@]36[C@@H](OC(=O)[C@@H]6O)O[C@@]4(C(=O)O5)[C@@]12O (stereo not given in full)
inhibition at 10 µM [14]: 51.3%

Cc1ccc(-c2cc(C(F)(F)F)nn2-c2ccc(S(N)(=O)=O)cc2)cc1 [CELECOXIB]
IC50 [15]: 34.3 µM

Cc1[nH]c(C=O)c2c1C(=O)N1CCC3(C(=O)Nc4ccccc43)C1C2 (stereo not given)
IC50 [4]: 0.8 µM

C/C=C1\CO[C@H](OC)c2c1cc1n(c2=O)CCc2c-1[nH]c1ccccc21
IC50 [4]: 3.6 µM

C[C@@H]1C[C@@H]2CC[C@@H]3[C@@H](C(=O)C[C@@H]4N5CCCC5C[C@H](C)[C@@]4(O)c4ccccc4)[C@](C)(O)C[C@H](N23)[C@@]1(O)c1ccccc1 (stereo not given in full)
IC50 [9]: 14.3 µM

COc1ccc2c(c1)[nH]c1cc(OC)c(C(=O)O)cc12 [CLAUSINE K]
IC50 [10]: 4.6 µM

CC1(C)C=Cc2c(ccc3c4c(n(S(C)(=O)=O)c23)C(C)(C)[C@@H]2C[C@]35CCCN3C(=O)[C@]2(C4)NC5=O)O1
inhibition at 20 µM [16]: > 32.6% | inhibition at 20 µM [17]: > 32.6%

CO[C@H]1[C@@H]2OCOCO[C@H]2[C@H](O[C@@H]2CC(=O)[C@@H]3CCN(Cc4cc5c(cc43)OCO5)C(=O)[C@H]2O)O[C@@H]1C
inhibition [8]: > 64%

CC1(C)C=Cc2c(ccc3c4c([nH]c23)C(C)(C)[C@@H]2C[C@]35CCCN3C(=O)[C@]2(C4)NC5=O)O1
inhibition at 20 µM [16]: > 32.6% | inhibition at 20 µM [17]: > 32.6%

O=C1C=CC2=NC=CC3c4ccccc4N1C23 (stereo not given)
IC50 [4]: 9.1 µM

CC(=O)O[C@@H]1C2C[C@@H](OC(C)=O)C3CCCN4CCC[C@@]2(O)C34C[C@@H]1C (stereo not given in full)
IC50 [11]: 4.2 µM

CO[C@@H]1C=C[C@@]23c4cc5c(cc4C(=O)N(CCc4ccccc4)[C@@H]2C(=O)N(C)[C@H]3C1)OCO5
IC50 [4]: 1.39 µM

C[C@]12CCC(=O)C=C1CC[C@@H]1[C@@H]2[C@@H](O)C[C@@]2(C)[C@H]1CC[C@]2(O)C(=O)CO [HYDROCORTISONE]
IC50 [4]: 3.4 µM

COc1c(CC=C(C)C)c(C=O)cc2c1[nH]c1cc(O)ccc12
IC50 [10]: 10.9 µM

COC1=C[C@@]23CCN(C)[C@@H](Cc4c(CN5CCc6cc(OC)c(OC)c7c6[C@H]5CC75C=CC(=O)C=C5)cc(OC)c(O)c42)C3=CC1=O
IC50 [9]: 1.39 µM

O=C1C=CC2=NC=CC3c4ccc(O)cc4N1C23 (stereo not given)
IC50 [4]: 7.7 µM

O=c1cccc2n1C[C@@H]1C[C@H]2CN2CCCC[C@@H]12
inhibition (INH) [6]: >40% | inhibition (INH) [7]: >40%

C[C@@H]1CC2CC(=O)C3CCCN4CCCC2C34C1 (stereo not given in full)
IC50 [11]: 4.2 µM

C=CC(C)(C)[C@@]1(C[C@@H]2NC(=O)[C@@H]3CCCN3C2=O)C(=O)Nc2c1ccc(O)c2CC=C(C)C
inhibition at 20 µM [16]: > 32.6% | inhibition at 20 µM [17]: > 32.6%

Cc1cncc2c1CC1c3[nH]c4ccccc4c3CCN1C2=O (stereo not given)
IC50 [4]: 1.3 µM

C[C@H]1CC23C4CCCN2CCCC3[C@H](O)CC4[C@H]1O (stereo not given in full)
IC50 [11]: 4.2 µM

CN1CCc2cc3c(cc2[C@@H]1[C@H]1OC(O)c2c1ccc1c2OCO1)OCO3 (stereo not given in full)
inhibition at 10 µM [14]: 36.5%

CN1CCc2cc3c(cc2[C@@H]1[C@H]1OC(=O)c2c1ccc1c2OCO1)OCO3
inhibition at 10 µM [14]: 34.8%

CC1(C)C=Cc2c(ccc3c2NC(=O)[C@@]32C[C@]34NC(=O)[C@]5(CCCN5C3=O)C[C@H]4C2(C)C)O1
inhibition at 20 µM [16]: > 32.6% | inhibition at 20 µM [17]: > 32.6%

CN1Cc2cc3c(cc2Cc2ccc4c(c2C1)OCO4)OCO3
inhibition at 10 µM [14]: 39.6%

CN1CCc2cc3c(c4c2[C@H]1Cc1c(O)cccc1-4)OCO3
IC50 [9]: 1.39 µM

COc1cc2c(cc1O)CN1CC[C@H]2C(=O)C[C@@H](O[C@@H]2O[C@H](CO)[C@@H](OC)[C@H](OC)[C@H]2OC)[C@H](O)C1=O
inhibition [8]: > 64%

COC1O[C@H]([C@H]2c3cc4c(cc3CCN2C)OCO4)c2ccc3c(c21)OCO3 (stereo not given in full)
inhibition at 10 µM [14]: 37.7%

CN1CCc2cc3c(c4c2[C@H]1Cc1ccccc1-4)OCO3
IC50 [4]: 1.39 µM

O=c1cccc2n1C[C@@H]1CCCN3CCC[C@@H]2[C@H]13
inhibition (INH) [6]: >40% | inhibition (INH) [7]: >40%

O=C1NCCc2c1[nH]c1ccc(O)cc21
IC50 [12]: 31.9 µM
